# Measurements reported in patent US9266939B2, “Compositions comprising natriuretic peptides and methods of use thereof” (Alexion Pharmaceuticals, Inc., priority 2010, dated 2016).
# Values joined by “and” are separate entries in the source; they are usually repeats but may differ in a detail not shown here. Identical values can stand only once. Marks after values point to notes of the source that are not given here.
# System: wild-type (CD-1) mice
# Assay: Daily bolus SC injection of NC2st on bone growth in wild-type (CD-1) mice
# Type: in vivo
# Description: The study was designed to evaluate the relationship between different doses of NC2st and the pharmacologic response on bone. The relationship was evaluated by measuring the effect of increasing doses of NC2st (SEQ ID NO: 502; as described, e.g., in Example 1) on bone growth in wild-type (WT, CD-1) mice. Bone growth response of wild-type and Fgfr3^369/+ (ACH) mice was compared.
# CD-1 mice are a standard rodent species for use in pharmacodynamic studies. Briefly, nursing mothers with fostered female pups of 13 to 16 days were obtained. At the age of 21 days, pups were weaned and randomized based on body weight into treatment groups.
# The animals received NC2st as a subcutaneous injection into the interscapular region as described in Table 11 below.
# CD-1 mice were treated at 3 weeks old at the indicated doses for 35 consecutive days, followed by necropsy 24 hours after the last injection.
# Ex vivo radiographs of whole body, rib cage, and skull were taken using a Faxitron model MX-20 DC4 under constant conditions (26 kV, 10 sec at 1×, 3× and 3× magnification, respectively). Bone measurements were performed on the radiographic images of all animals in a blinded fashion using the software Image Processing and Analysis in Java (ImageJ).
# Bone samples were cleaned of excess tissue (not scraped) and fixed. Length of femur and tibia was measured using a caliper.
# [1] = day 36, Tx-10 (10 mg/kg SC once daily)
# [2] = day 36, Tx-30 (30 mg/kg SC once daily)
# [3] = day 36, Tx-100 (100 mg/kg SC once daily)
substance,measurement,setting,value
"NC2st: Fc-CNP fusion: Strep-tag II, TEV site, human IgG-1 Fc, 16-amino acid glycine-rich linker, CNP22; SEQ ID NO: 502",treatment time after which crown-rump length in vivo differed significantly from Vehicle,Tx-30,2 weeks
same,treatment time after which tail length in vivo differed significantly from Vehicle,Tx-30,2 weeks
same,treatment time after which tibia length in vivo differed significantly from Vehicle,Tx-30,4 weeks
same,treatment time after which crown-rump length in vivo differed significantly from Vehicle,Tx-100,2 weeks
same,treatment time after which tail length in vivo differed significantly from Vehicle,Tx-100,2 weeks
same,treatment time after which tibia length in vivo differed significantly from Vehicle,Tx-100,2 weeks
same,% Δ Cervical segment (X-Ray) compared to Vehicle,[1],8.8%
same,% Δ Circularity index (X-Ray) compared to Vehicle,[1],−1.9%
same,% Δ Crown-rump length in vivo compared to Vehicle,[1],4.4%
same,% Δ Foramen magnum height compared to Vehicle,[1],1.2%
same,% Δ Foramen magnum width compared to Vehicle,[1],1.3%
same,% Δ Left Femur length compared to Vehicle,[1],3.3%
same,% Δ Left Humerus length compared to Vehicle,[1],1.6%
same,% Δ Left Tibia length compared to Vehicle,[1],2.8%
same,% Δ Left Ulna length compared to Vehicle,[1],0.71%
same,% Δ Lumbar segment (X-Ray) compared to Vehicle,[1],6.2%
same,% Δ Metatarsal bone (3rd digit) (X-Ray) compared to Vehicle,[1],5.2%
same,% Δ Naso-anal length (X-Ray) compared to Vehicle,[1],6.5%
same,% Δ Occipital-front distance (X-Ray) compared to Vehicle,[1],1.4%
same,% Δ Right Tibia length in vivo compared to Vehicle,[1],1.1%
same,% Δ Sternum length (X-Ray) compared to Vehicle,[1],6.9%
same,% Δ Tail length in vivo compared to Vehicle,[1],6.1%
same,% Δ Thoracic segment (X-Ray) compared to Vehicle,[1],11.4%
same,% Δ Total CTL segments (X-Ray) compared to Vehicle,[1],8.9%
same,Cervical segment (X-Ray),[1],9.00 mm
same,Circularity index (X-Ray),[1],0.370
same,Crown-rump length in vivo,[1],99.1 mm
same,Foramen magnum height,[1],4.13 mm
same,Foramen magnum width,[1],4.72 mm
same,Left Femur length,[1],15.6* mm
same,Left Humerus length,[1],12.4 mm
same,Left Tibia length,[1],18.5 mm
same,Left Ulna length,[1],14.1 mm
same,Lumbar segment (X-Ray),[1],20.5* mm
same,Metatarsal bone (3rd digit) (X-Ray),[1],24.5* mm
same,Naso-anal length (X-Ray),[1],115* mm
same,Occipital-front distance (X-Ray),[1],42.9 mm
same,Right Tibia length in vivo,[1],19.0 mm
same,Sternum length (X-Ray),[1],38.5* mm
same,Tail length in vivo,[1],102 mm
same,Thoracic segment (X-Ray),[1],25.5* mm
same,Total CTL segments (X-Ray),[1],55.0* mm
same,Δ Cervical segment (X-Ray) compared to Vehicle,[1],0.73 mm
same,Δ Circularity index (X-Ray) compared to Vehicle,[1],−0.007
same,Δ Crown-rump length in vivo compared to Vehicle,[1],4.2 mm
same,Δ Foramen magnum height compared to Vehicle,[1],0.05 mm
same,Δ Foramen magnum width compared to Vehicle,[1],0.06 mm
same,Δ Left Femur length compared to Vehicle,[1],0.5 mm
same,Δ Left Humerus length compared to Vehicle,[1],0.2 mm
same,Δ Left Tibia length compared to Vehicle,[1],0.5 mm
same,Δ Left Ulna length compared to Vehicle,[1],0.10 mm
same,Δ Lumbar segment (X-Ray) compared to Vehicle,[1],1.2 mm
same,Δ Metatarsal bone (3rd digit) (X-Ray) compared to Vehicle,[1],1.2 mm
same,Δ Naso-anal length (X-Ray) compared to Vehicle,[1],7.0 mm
same,Δ Occipital-front distance (X-Ray) compared to Vehicle,[1],0.6 mm
same,Δ Right Tibia length in vivo compared to Vehicle,[1],0.20 mm
same,Δ Sternum length (X-Ray) compared to Vehicle,[1],2.5 mm
same,Δ Tail length in vivo compared to Vehicle,[1],5.9 mm
same,Δ Thoracic segment (X-Ray) compared to Vehicle,[1],2.6 mm
same,Δ Total CTL segments (X-Ray) compared to Vehicle,[1],4.5 mm
same,% Δ Cervical segment (X-Ray) compared to Vehicle,[2],13.8%
same,% Δ Circularity index (X-Ray) compared to Vehicle,[2],−4.0%
same,% Δ Crown-rump length in vivo compared to Vehicle,[2],7.5%
same,% Δ Foramen magnum height compared to Vehicle,[2],0.98%
same,% Δ Foramen magnum width compared to Vehicle,[2],1.5%
same,% Δ Left Femur length compared to Vehicle,[2],6.0%
same,% Δ Left Humerus length compared to Vehicle,[2],2.5%
same,% Δ Left Tibia length compared to Vehicle,[2],5.0%
same,% Δ Left Ulna length compared to Vehicle,[2],3.6%
same,% Δ Lumbar segment (X-Ray) compared to Vehicle,[2],9.3%
same,% Δ Metatarsal bone (3rd digit) (X-Ray) compared to Vehicle,[2],6.4%
same,% Δ Naso-anal length (X-Ray) compared to Vehicle,[2],9% and 9.3%
same,% Δ Occipital-front distance (X-Ray) compared to Vehicle,[2],1.2%
same,% Δ Right Tibia length in vivo compared to Vehicle,[2],3.2%
same,% Δ Sternum length (X-Ray) compared to Vehicle,[2],10.8%
same,% Δ Tail length in vivo compared to Vehicle,[2],10.3%
same,% Δ Thoracic segment (X-Ray) compared to Vehicle,[2],14.4%
same,% Δ Total CTL segments (X-Ray) compared to Vehicle,[2],12.3%
same,Cervical segment (X-Ray),[2],9.41* mm
same,Circularity index (X-Ray),[2],0.362
same,Crown-rump length in vivo,[2],102* mm
same,Foramen magnum height,[2],4.12 mm
same,Foramen magnum width,[2],4.73 mm
same,Left Femur length,[2],16.0* mm
same,Left Humerus length,[2],12.5* mm
same,Left Tibia length,[2],18.9* mm
same,Left Ulna length,[2],14.5 mm
same,Lumbar segment (X-Ray),[2],21.1* mm
same,Metatarsal bone (3rd digit) (X-Ray),[2],24.8* mm
same,Naso-anal length (X-Ray),[2],118* mm
same,Occipital-front distance (X-Ray),[2],42.8 mm
same,Right Tibia length in vivo,[2],19.4* mm
same,Sternum length (X-Ray),[2],39.9* mm
same,Tail length in vivo,[2],106* mm
same,Thoracic segment (X-Ray),[2],26.2* mm
same,Total CTL segments (X-Ray),[2],56.7* mm
same,Δ Cervical segment (X-Ray) compared to Vehicle,[2],1.14 mm
same,Δ Circularity index (X-Ray) compared to Vehicle,[2],−0.015
same,Δ Crown-rump length in vivo compared to Vehicle,[2],7.1 mm
same,Δ Foramen magnum height compared to Vehicle,[2],0.04 mm
same,Δ Foramen magnum width compared to Vehicle,[2],0.07 mm
same,Δ Left Femur length compared to Vehicle,[2],0.9 mm
same,Δ Left Humerus length compared to Vehicle,[2],0.3 mm
same,Δ Left Tibia length compared to Vehicle,[2],0.9 mm
same,Δ Left Ulna length compared to Vehicle,[2],0.5 mm
same,Δ Lumbar segment (X-Ray) compared to Vehicle,[2],1.8 mm
same,Δ Metatarsal bone (3rd digit) (X-Ray) compared to Vehicle,[2],1.5 mm
same,Δ Naso-anal length (X-Ray) compared to Vehicle,[2],10 mm
same,Δ Occipital-front distance (X-Ray) compared to Vehicle,[2],0.5 mm
same,Δ Right Tibia length in vivo compared to Vehicle,[2],0.60 mm
same,Δ Sternum length (X-Ray) compared to Vehicle,[2],3.9 mm
same,Δ Tail length in vivo compared to Vehicle,[2],9.9 mm
same,Δ Thoracic segment (X-Ray) compared to Vehicle,[2],3.3 mm
same,Δ Total CTL segments (X-Ray) compared to Vehicle,[2],6.2 mm
same,% Δ Cervical segment (X-Ray) compared to Vehicle,[3],20.3%
same,% Δ Circularity index (X-Ray) compared to Vehicle,[3],−7.4%
same,% Δ Crown-rump length in vivo compared to Vehicle,[3],12.7%
same,% Δ Foramen magnum height compared to Vehicle,[3],2.2%
same,% Δ Foramen magnum width compared to Vehicle,[3],1.3%
same,% Δ Left Femur length compared to Vehicle,[3],10% and 9.9%
same,% Δ Left Humerus length compared to Vehicle,[3],6% and 5.7%
same,% Δ Left Tibia length compared to Vehicle,[3],7% and 7.2%
same,% Δ Left Ulna length compared to Vehicle,[3],6% and 5.7%
same,% Δ Lumbar segment (X-Ray) compared to Vehicle,[3],13.5%
same,% Δ Metatarsal bone (3rd digit) (X-Ray) compared to Vehicle,[3],12.0%
same,% Δ Naso-anal length (X-Ray) compared to Vehicle,[3],13%
same,% Δ Occipital-front distance (X-Ray) compared to Vehicle,[3],2.1%
same,% Δ Right Tibia length in vivo compared to Vehicle,[3],6.4%
same,% Δ Sternum length (X-Ray) compared to Vehicle,[3],12.5%
same,% Δ Tail length in vivo compared to Vehicle,[3],16.5%
same,% Δ Thoracic segment (X-Ray) compared to Vehicle,[3],21.0%
same,% Δ Total CTL segments (X-Ray) compared to Vehicle,[3],17.8%
same,Cervical segment (X-Ray),[3],9.95* mm
same,Circularity index (X-Ray),[3],0.349*
same,Crown-rump length in vivo,[3],107* mm
same,Foramen magnum height,[3],4.17 mm
same,Foramen magnum width,[3],4.72 mm
same,Left Femur length,[3],16.6* mm
same,Left Humerus length,[3],12.9* mm
same,Left Tibia length,[3],19.3* mm
same,Left Ulna length,[3],14.8* mm
same,Lumbar segment (X-Ray),[3],21.9* mm
same,Metatarsal bone (3rd digit) (X-Ray),[3],26.1* mm
same,Naso-anal length (X-Ray),[3],122* mm
same,Occipital-front distance (X-Ray),[3],43.2* mm
same,Right Tibia length in vivo,[3],20.0* mm
same,Sternum length (X-Ray),[3],40.5* mm
same,Tail length in vivo,[3],112* mm
same,Thoracic segment (X-Ray),[3],27.7* mm
same,Total CTL segments (X-Ray),[3],59.5* mm
same,Δ Cervical segment (X-Ray) compared to Vehicle,[3],1.68 mm
same,Δ Circularity index (X-Ray) compared to Vehicle,[3],−0.028
same,Δ Crown-rump length in vivo compared to Vehicle,[3],12.1 mm
same,Δ Foramen magnum height compared to Vehicle,[3],0.09 mm
same,Δ Foramen magnum width compared to Vehicle,[3],0.06 mm
same,Δ Left Femur length compared to Vehicle,[3],1.5 mm
same,Δ Left Humerus length compared to Vehicle,[3],0.7 mm
same,Δ Left Tibia length compared to Vehicle,[3],1.3 mm
same,Δ Left Ulna length compared to Vehicle,[3],0.8 mm
same,Δ Lumbar segment (X-Ray) compared to Vehicle,[3],2.6 mm
same,Δ Metatarsal bone (3rd digit) (X-Ray) compared to Vehicle,[3],2.8 mm
same,Δ Naso-anal length (X-Ray) compared to Vehicle,[3],14 mm
same,Δ Occipital-front distance (X-Ray) compared to Vehicle,[3],0.9 mm
same,Δ Right Tibia length in vivo compared to Vehicle,[3],1.2 mm
same,Δ Sternum length (X-Ray) compared to Vehicle,[3],4.5 mm
same,Δ Tail length in vivo compared to Vehicle,[3],15.9 mm
same,Δ Thoracic segment (X-Ray) compared to Vehicle,[3],4.8 mm
same,Δ Total CTL segments (X-Ray) compared to Vehicle,[3],9.0 mm
